Measured values: PubChem BioAssay (NCI)
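How tested: cells in 96-well plates exposed to compound for 48 hours at five concentrations. TGI is the concentration that stops growth completely.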

Columns and labels:
Assay in all cases: NCI anticancer screen, dose series, 48 h
HCT-15 colon = system: HCT-15 colon
U251 CNS = system: U251 CNS
A498 renal = system: A498 renal
MDA-MB-231 breast = system: MDA-MB-231 breast
MCF7 breast = system: MCF7 breast
OVCAR-3 ovarian = system: OVCAR-3 ovarian
T-47D breast = system: T-47D breast
UO-31 renal = system: UO-31 renal
DU-145 prostate = system: DU-145 prostate
HOP-92 NSCLC = system: HOP-92 NSCLC
PC-3 prostate = system: PC-3 prostate
KM12 colon = system: KM12 colon
SK-OV-3 ovarian = system: SK-OV-3 ovarian
SN12C renal = system: SN12C renal
OVCAR-5 ovarian = system: OVCAR-5 ovarian
M19-MEL melanoma = system: M19-MEL melanoma
DMS 114 small cell lung = system: DMS 114 small cell lung
HOP-18 NSCLC = system: HOP-18 NSCLC
DLD-1 colon = system: DLD-1 colon
KM20L2 colon = system: KM20L2 colon

| SMILES | TGI (HCT-15 colon) | TGI (U251 CNS) | TGI (A498 renal) | TGI (MDA-MB-231 breast) | TGI (MCF7 breast) | TGI (OVCAR-3 ovarian) | TGI (T-47D breast) | TGI (UO-31 renal) | TGI (DU-145 prostate) | TGI (HOP-92 NSCLC) | TGI (PC-3 prostate) | TGI (KM12 colon) | TGI (SK-OV-3 ovarian) | TGI (SN12C renal) | TGI (OVCAR-5 ovarian) | TGI (M19-MEL melanoma) | TGI (DMS 114 small cell lung) | TGI (HOP-18 NSCLC) | TGI (DLD-1 colon) | TGI (KM20L2 colon) |
| --- | --- | --- | --- | --- | --- | --- | --- | --- | --- | --- | --- | --- | --- | --- | --- | --- | --- | --- | --- | --- |
| O=P(O)(O)CCP(=O)(O)O | > 100 µM | > 100 µM | > 100 µM | > 100 µM | > 100 µM | > 100 µM | > 100 µM | > 100 µM | > 100 µM | > 100 µM | > 100 µM | > 100 µM | > 100 µM | > 100 µM | > 100 µM | – | – | – | – | – |
| NC(CCCCCP(=O)(c1ccccc1)C1C=CC=CC1)C(=O)O (centres undefined) | > 100 µM | > 100 µM | – | > 100 µM | > 100 µM | > 100 µM | > 100 µM | > 100 µM | > 100 µM | > 100 µM | > 100 µM | > 100 µM | > 100 µM | > 100 µM | > 100 µM | – | – | – | – | – |
| CCN(CC)CCNc1ccc2nnn3c4ccc(OCCN(CC)CC)cc4c(=O)c1c23 | > 100 µM | > 100 µM | > 100 µM | > 100 µM | > 100 µM | – | > 100 µM | > 100 µM | > 100 µM | > 100 µM | – | 84.5 µM | > 100 µM | > 100 µM | > 100 µM | – | – | – | – | – |
| COc1cc2c(cc1OC)C(CC1=C(c3ccccc3)CN3CCc4cc(OC)c(OC)cc4C3C1)NCC2 (centres undefined) | 36.1 µM | 29.8 µM | 33.2 µM | – | – | 34.8 µM | – | 23.4 µM | – | – | – | 39.1 µM | 43.9 µM | 37 µM | 35.4 µM | 30.7 µM | 30.3 µM | 30.9 µM | 34.9 µM | 28.9 µM |
| O=S(=O)(O)CCCc1cccc2ccccc12 | > 100 µM | > 100 µM | > 100 µM | > 100 µM | > 100 µM | > 100 µM | > 100 µM | > 100 µM | > 100 µM | > 100 µM | > 100 µM | > 100 µM | > 100 µM | > 100 µM | > 100 µM | – | – | – | – | – |
| O=c1cc[nH]c(=O)[nH]1 | > 1000 µM | > 1000 µM | – | – | > 1000 µM | > 1000 µM | – | > 1000 µM | – | > 1000 µM | – | 846 µM | > 1000 µM | > 917 µM | > 956 µM | > 944 µM | > 1000 µM | > 1000 µM | > 1000 µM | > 1000 µM |
| CC(=O)OC1/C=C(\C)C(OC(C)=O)C/C=C(/C)CCC2C(/C=C/C1=O)C2(C)C (centres undefined) | > 100 µM | > 100 µM | > 100 µM | – | – | > 100 µM | – | > 100 µM | – | > 100 µM | – | > 100 µM | > 100 µM | > 100 µM | > 100 µM | > 100 µM | – | > 100 µM | > 100 µM | > 100 µM |
| CC(=O)Nc1ccc(N=Nc2c(O)c(S(=O)(=O)O)cc3cc(S(=O)(=O)O)ccc23)cc1 | > 100 µM | > 100 µM | – | > 100 µM | – | > 100 µM | > 100 µM | > 100 µM | > 100 µM | > 100 µM | > 100 µM | > 100 µM | > 100 µM | > 100 µM | > 100 µM | – | – | – | – | – |
| C[n+]1c2ccc(Cl)cc2nc2cc(-c3ccccc3)ccc21 | 39 µM | > 100 µM | – | 44 µM | 4.52 µM | 6.44 µM | – | 48.7 µM | 50.8 µM | – | 47.3 µM | 33.7 µM | – | 25.1 µM | 55.5 µM | – | – | – | – | – |
| O=C(O)C(O)C(O)C(O)C(O)c1nc2ccccc2s1 (centres undefined) | 82.9 µM | 29.5 µM | 63.7 µM | 31.9 µM | 33.1 µM | 31.4 µM | 52.7 µM | 30.1 µM | 31.2 µM | 40.1 µM | 30 µM | 71.1 µM | 34.4 µM | 34.8 µM | 72.9 µM | – | – | – | – | – |
| O=C1c2cccc3c2C(=O)c2c(cccc21)OCCOCCOCCOCCO3 | > 100 µM | > 100 µM | – | – | – | > 100 µM | – | 99.8 µM | – | – | – | – | > 100 µM | > 100 µM | > 100 µM | > 100 µM | > 100 µM | > 100 µM | > 100 µM | > 100 µM |
| Cc1n(Cc2ccccc2)c2c([n+]1C)C(=O)c1ccccc1C2=O | 16.2 µM | 0.131 µM | 0.653 µM | 0.299 µM | 0.079 µM | 0.0771 µM | 1.33 µM | 20.9 µM | 0.32 µM | 1.49 µM | 0.999 µM | 0.708 µM | 1.65 µM | 0.112 µM | 0.503 µM | – | – | – | – | – |
| Cc1c(O)ccc2c(O)c(NC(=O)c3ccc4c(c3)CCC(C)(C)O4)c(=O)oc12 | > 100 µM | > 100 µM | > 100 µM | > 100 µM | > 100 µM | > 100 µM | > 100 µM | > 100 µM | > 100 µM | > 100 µM | > 100 µM | > 100 µM | > 100 µM | > 100 µM | > 100 µM | – | – | – | – | – |
| Nc1c(C(=O)O)nnc2ccc(Cl)cc12 | > 100 µM | > 100 µM | > 100 µM | > 100 µM | > 100 µM | > 100 µM | > 100 µM | > 100 µM | > 100 µM | – | > 100 µM | > 100 µM | > 100 µM | > 100 µM | > 100 µM | – | – | – | – | – |
| O=c1sc2ccccc2n1CC1CS1 (centres undefined) | > 100 µM | – | – | – | – | > 100 µM | – | > 100 µM | – | > 100 µM | – | > 100 µM | > 100 µM | > 100 µM | > 100 µM | > 100 µM | > 100 µM | – | – | > 100 µM |
| C=CCc1c(O)c2c(c3oc(=O)cc(C)c13)CC(C)O2 (centres undefined) | > 100 µM | > 100 µM | – | – | – | > 100 µM | – | > 100 µM | – | – | – | – | > 100 µM | > 100 µM | > 100 µM | > 100 µM | > 100 µM | > 100 µM | > 100 µM | > 100 µM |
| CC(C)Cc1ccc(C(C)C(=O)N2CCN(/C=C/c3ccccc3)CC2)cc1 (centres undefined) | 27.5 µM | 25.5 µM | 31.8 µM | – | 33.7 µM | 25.9 µM | – | 24 µM | – | 26.1 µM | – | 31.7 µM | 30.3 µM | 30.8 µM | 26.9 µM | 29.7 µM | 24.6 µM | 35.9 µM | 27.3 µM | 29.9 µM |
| CCOc1ncn(-c2ccc(NC(=S)Nc3ncccn3)cc2)n1 | > 100 µM | > 100 µM | – | 64.6 µM | > 100 µM | > 100 µM | 62.2 µM | 36 µM | > 100 µM | 87 µM | > 100 µM | > 100 µM | > 100 µM | > 100 µM | > 100 µM | – | – | – | – | – |
| CCCC(=O)OCC1OC(n2ccc(N)nc2=O)C(OC(=O)CCC)C1OC(=O)CCC (centres undefined) | > 100 µM | > 100 µM | > 100 µM | – | > 100 µM | > 100 µM | – | > 100 µM | – | > 100 µM | – | > 100 µM | > 100 µM | > 100 µM | > 100 µM | > 100 µM | > 100 µM | > 100 µM | > 100 µM | > 100 µM |
